# Assay results as given in ChEMBL document CHEMBL5584354, “Impact of Conjugation of the Reactive Oxygen Species (ROS)-Generating Catalytic Moiety with Membrane-Active Antimicrobial Peptoids: Promoting Multitarget Mechanism and Enhancing Selectivity” (J Med Chem, 2024).
# Calls of active or inactive are those of the source. The rule behind the calls is not given here. Non-standard residues stand in square brackets, D forms with d. Residues, ends and D or L forms follow the SMILES beside them. Gly(N(CH2)2(3-indolyl)) = O=C(O)CNCCc1c[nH]c2ccccc12; Nspe = C[C@H](NCC(=O)O)c1ccccc1; Nlys = NCCCCNCC(=O)O
# Experiments:
# Cell membrane = assay: Disruption of outer membrane in Escherichia coli ATCC 25922 assessed as increase in absorbance measured every 5 mins for 90 mins by nitrocefin assay; assay type: cell membranes; settings: dose 0-25 µM
# Staphylococcus aureus = assay: Antibacterial activity against Staphylococcus aureus ATCC 25923 assessed as inhibition of bacterial growth incubated for 24 hrs by broth dilution method; assay type: functional
# Escherichia coli [1] = assay: Antibacterial activity against Escherichia coli K1 infected in female ICR mouse model of septic shock assessed as reduction in alveolar hemorrhage in lung at 5 mg/kg, ip pretreated for 1 hr followed by bacteria addition and further treated with 3 doses of compound every 4 hrs by H and E staining based light microscopic analysis; assay type: functional, organism-based; settings: time 9.0 hrs
# Escherichia coli [2] = assay: Antibacterial activity against Escherichia coli K1 infected in female ICR mouse model of septic shock assessed as reduction in BUN level in serum at 5 mg/kg, ip pretreated for 1 hr followed by bacteria addition and further treated with 3 doses of compound every 4 hrs relative to control; assay type: functional; set-up: scale not given: the % may be the effect or the level left; settings: time 9 hrs
# [3] = Toxicity in female ICR mouse assessed as effect on ALT level in serum at 5 mg/kg, ip administered four doses for 12 hrs and measured 24 hrs post last dose; assay type: organism-based; settings: in vivo, 36 h
# Streptococcus pneumoniae [4] = assay: Antibacterial activity against catalase-negative Streptococcus pneumoniae KCMM42691 assessed as inhibition of bacterial growth incubated for 24 hrs by broth dilution method; assay type: functional
# RAW264.7 [5] = assay: Antiinflammatory activity in LPS-stimulated mouse RAW264.7 cells assessed as reduction in TNFalpha production at 10 uM incubated for 16 hrs by ELISA relative to control; assay type: functional; set-up: scale not given: the % may be the effect or the level left
# Streptococcus pneumoniae [6] = assay: Antibacterial activity against catalase-negative Streptococcus pneumoniae KCMM42691 assessed as cell killing at 12.5 uM incubated for 4 to 16 hrs by CFU assay; assay type: functional, organism-based; settings: time 4-16 hrs
# HEK-Blue hTLR7 [7] = assay: Inhibition of TLR4-mediated inflammatory signaling in LPS-stimulated HEK-Blue […] cells assessed as reduction in SEAP activity at 20 uM preincubated for 1 hr followed by LPS stimulation and measured after 16 hrs by ELISA relative to control; assay type: cell-based; settings: Homo sapiens, time 17.0 hrs
# [8] = Hemolytic activity in male Sprague-Dawley rat erythrocytes at 100 uM incubated for 1 hr by absorbance based method relative to control; assay type: toxicity, cell-based, Erythrocyte; settings: read-out: Activity
# Escherichia coli [9] = assay: Antibacterial activity against Escherichia coli K1 infected in female ICR mouse model of septic shock assessed as reduction in bacterial load in kidney at 5 mg/kg, ip pretreated for 1 hr followed by bacteria addition and further treated with 3 doses of compound every 4 hrs; assay type: functional, organism-based; settings: time 9.0 hrs
# [10] = Hemolytic activity in male Sprague-Dawley rat erythrocytes at 50 uM incubated for 1 hr by absorbance based method relative to control; assay type: toxicity, cell-based, Erythrocyte; settings: read-out: Activity
# Escherichia coli [11] = assay: Antibacterial activity against Escherichia coli K1 infected in female ICR mouse model of septic shock assessed as reduction in infiltrated […] in lung at 5 mg/kg, ip pretreated for 1 hr followed by bacteria addition and further treated with 3 doses of compound every 4 hrs by H and E staining based light microscopic analysis; assay type: functional, organism-based; settings: time 9.0 hrs
# [12] = Toxicity in female ICR mouse assessed as dilatation of interstitial blood capillaries in kidney at 5 mg/kg, ip administered four doses for 12 hrs and measured 24 hrs post last dose by H and E staining based light microscopic analysis; assay type: organism-based; settings: in vivo, 36 h
# RAW264.7 [13] = assay: Antiinflammatory activity in LPS-stimulated mouse RAW264.7 cells assessed as reduction in IL-1beta production at 10 uM incubated for 16 hrs by ELISA relative to control; assay type: functional; set-up: scale not given: the % may be the effect or the level left
# [14] = Toxicity in female ICR mouse infected with Escherichia coli K1 assessed as lung injury at 5 mg/kg, ip pretreated for 1 hr followed by bacteria addition and further treated with 3 doses of compound every 4 hrs; assay type: organism-based; settings: in vivo, 9 h
# Escherichia coli [15] = assay: Antibacterial activity against Escherichia coli K1 infected in female ICR mouse model of septic shock assessed as reduction in TNFalpha level in serum at 5 mg/kg, ip pretreated for 1 hr followed by bacteria addition and further treated with 3 doses of compound every 4 hrs by ELISA relative to control; assay type: functional; set-up: scale not given: the % may be the effect or the level left; settings: time 9 hrs
# [16] = Toxicity in female ICR mouse assessed as dilatation of renal vein in kidney at 5 mg/kg, ip administered four doses for 12 hrs and measured 24 hrs post last dose by H and E staining based light microscopic analysis; assay type: organism-based; settings: in vivo, 36 h
# [17] = Hemolytic activity in male Sprague-Dawley rat erythrocytes at 25 uM incubated for 1 hr by absorbance based method relative to control; assay type: toxicity, cell-based, Erythrocyte; settings: read-out: Activity
# Escherichia coli [18] = assay: Antibacterial activity against Escherichia coli K1 infected in female ICR mouse model of septic shock assessed as reduction in bacterial load in lung at 5 mg/kg, ip pretreated for 1 hr followed by bacteria addition and further treated with 3 doses of compound every 4 hrs; assay type: functional, organism-based; settings: time 9.0 hrs
# Acinetobacter baumannii = assay: Antibacterial activity against carbapenem-resistant Acinetobacter baumannii NMS1707 harboring extended-spectrum beta-lactamase assessed as inhibition of bacterial growth incubated for 24 hrs by broth dilution method; assay type: functional
# Escherichia coli [19] = assay: Antibacterial activity against Escherichia coli K1 infected in female ICR mouse model of septic shock assessed as reduction in pulmonary congestion in lung at 5 mg/kg, ip pretreated for 1 hr followed by bacteria addition and further treated with 3 doses of compound every 4 hrs by H and E staining based light microscopic analysis; assay type: functional, organism-based; settings: time 9.0 hrs
# HEK-Blue hTLR7 [20] = assay: Inhibition of TLR4-mediated inflammatory signaling in LPS-stimulated HEK-Blue […] cells assessed as reduction in SEAP activity at 10 uM preincubated for 1 hr followed by LPS stimulation and measured after 16 hrs by ELISA relative to control; assay type: cell-based; settings: Homo sapiens, time 17.0 hrs
# Escherichia coli [21] = assay: Antibacterial activity against Escherichia coli ATCC 25922 assessed as inhibition of bacterial growth incubated for 24 hrs by broth dilution method; assay type: functional
# DNA = assay: Binding affinity to pUC19 plasmid DNA (unknown origin) assessed as smearing and retardation of DNA bands at 25 uM incubated for 2 hrs by agarose gel imaging method; assay type: nucleic-acid assay
# [22] = Acute toxicity in female ICR mouse assessed as animal survival at 5 mg/kg, ip administered four doses for 12 hrs; assay type: organism-based; settings: in vivo
# HEK293 = assay: Cytotoxicity against HEK293 cells assessed as reduction in cell viability at 3.1 to 25 uM incubated for 24 hrs by WST-8 assay; assay type: toxicity, cell-based; settings: human, hek293, 24 h, dose 3.1-25 µM
# Escherichia coli [23] = assay: Induction of lipid peroxidation in Escherichia coli ATCC 25922 assessed as increase in green fluorescence at 12.5 uM incubated for 1 hrs by BODIPY 581/591 C11 dye based confocal microscopic analysis; assay type: functional, organism-based
# [24] = Selectivity index, ratio of HC10 for hemolytic activity in male Sprague-Dawley rat erythrocytes to MIC for antibacterial activity against Escherichia coli ATCC 25922; assay type: toxicity; settings: read-out: Selectivity Index
# HaCaT = assay: Cytotoxicity against human HaCaT cells assessed as cell killing incubated for 24 hrs by MTS assay; assay type: toxicity, cell-based
# RAW264.7 [25] = assay: Inhibition of LPS-induced NF-kappaB pathway in mouse RAW264.7 cells assessed as reduction in NF-kappaB nuclear translocation at 10 uM preincubated for 1 hr followed by LPS addition and measured after 1 hr by immunofluorescence staining based confocal microscopic analysis; assay type: cell-based; settings: time 2.0 hrs
# [26] = Hemolytic activity in male Sprague-Dawley rat erythrocytes assessed as concentration required for 50% hemolysis incubated for 1 hr by absorbance based method; assay type: toxicity, cell-based, Erythrocyte
smiles,measurement,setting,value
C[C@@H](c1ccccc1)N(CC(=O)N(CCCCN)CC(=O)N(CCc1c[nH]c2ccccc12)CC(=O)N(CCc1c[nH]c2ccccc12)CC(N)=O)C(=O)CN(CCCCN)C(=O)CN(CCCCN)C(=O)CN(C(=O)CN(C(=O)CN(CCCCN)C(=O)CN(C(=O)CN(C(=O)CN(CCCCN)C(=O)[C@H](Cc1c[nH]cn1)NC(=O)CNC(=O)CN)[C@@H](C)c1ccccc1)[C@@H](C)c1ccccc1)[C@@H](C)c1ccccc1)[C@@H](C)c1ccccc1 (H-GGH[Nlys][Nspe][Nspe][Nlys][Nspe][Nspe][Nlys][Nlys][Nspe][Nlys][Gly(N(CH2)2(3-indolyl))][Gly(N(CH2)2(3-indolyl))]-NH2),Activity,Cell membrane,Dose-Dependent Effect
same,MIC,Staphylococcus aureus,12.5 µM
same,Activity,Escherichia coli [1],Active
same,Activity,Escherichia coli [2],40.3%
same,Activity,[3],Non-Toxic
same,MBC,Streptococcus pneumoniae [4],12.5 µM
same,MIC,Streptococcus pneumoniae [4],6.3 µM
same,Activity,RAW264.7 [5],32.5%
same,Activity,Streptococcus pneumoniae [6],Active
same,inhibition,HEK-Blue hTLR7 [7],84.3%
same,"hemolysis at 1 h, 100 µM",[8],5.57%
same,Activity,Escherichia coli [9],Active
same,"hemolysis at 1 h, 50 µM",[10],4.83%
same,Activity,Escherichia coli [11],Active
same,Activity,[12],Non-Toxic
same,Activity,RAW264.7 [13],36%
same,Activity,[14],Non-Toxic
same,Activity,Escherichia coli [15],46.6%
same,Activity,[16],Non-Toxic
same,"hemolysis at 1 h, 25 µM",[17],3.13%
same,Activity,Escherichia coli [18],Active
same,MIC,Acinetobacter baumannii,3.1 µM
same,Activity,Escherichia coli [19],Active
same,inhibition,HEK-Blue hTLR7 [20],49.7%
same,MIC,Escherichia coli [21],6.3 µM
same,Activity,DNA,Active
same,Survival,[22],> 96 h
same,Activity,HEK293,Non-Toxic
same,Activity,Escherichia coli [23],Active
same,selectivity ratio,[24],> 15.8
same,LC50,HaCaT,110 µM
same,inhibition,RAW264.7 [25],Active
same,HC50 at 1 h,[26],> 100 µM
